The target in experiment [1] is T1, isolated recombinant JAK1 kinase domain (Homo sapiens, UniProt P23458).
T1 construct: isolated recombinant JAK1 and JAK2 kinase domain
The experiment in a line: JAK enzyme assay (Caliper LabChip), JAK1. In kind it is biochemical. The note with it: 1.5 nM JAK1, ATP 25 μM, 22° C., 30 minutes; Morrison tight binding model. The procedure: (§1) The activity of the isolated recombinant JAK1 and JAK2 kinase domain was measured by monitoring phosphorylation of a peptide derived from JAK3 (Val-Ala-Leu-Val-Asp-Gly-Tyr-Phe-Arg-Leu-Thr-Thr, fluorescently labeled on the N-terminus with 5-carboxyfluorescein) using the Caliper LabChip® technology (Caliper Life Sciences, Hopkinton, Mass.). To determine inhibition constants (Ki), compounds were diluted serially in DMSO and added to 50 μL kinase reactions containing purified enzyme (1.5 nM JAK1, or 0.2 nM JAK2), 100 mM HEPES buffer (pH 7.2), 0.015% Brij-35, 1.5 μM peptide substrate, ATP (25 μM), 10 mM MgCl2, 4 mM DTT at a final DMSO concentration of 2%. Reactions were incubated at 22° C. in 384-well polypropylene microtiter plates for 30 minutes and then stopped by addition of 25 μL of an EDTA containing solution (100 mM HEPES buffer (pH 7.2), 0.015% Brij-35, 150 mM EDTA), resulting in a final EDTA concentration of 50 mM. After termination of the kinase reaction, the proportion of phosphorylated product was determined as a fraction of total peptide substrate using the Caliper LabChip® 3000 according to the manufacturer's specifications. Ki values were then determined using the Morrison tight binding model (Morrison, J. F., Biochim. Biophys. Acta. 185:269-296 (1969); William, J. W. and Morrison, J. F., Meth. Enzymol., 63:437-467 (1979)) modified for ATP-competitive inhibition [Ki ═Ki,app/(1+[ATP]/Km,app)].

Experiment [2] concerns the target T2, isolated recombinant JAK2 kinase domain (Homo sapiens, UniProt O60674).
T2 construct: isolated recombinant JAK1 and JAK2 kinase domain
Put plainly: JAK enzyme assay (Caliper LabChip), JAK2. In kind it is biochemical. The note with it: 0.2 nM JAK2, ATP 25 μM, 22° C., 30 minutes; Morrison tight binding model. The procedure:
as §1

pKi: −log10 of the molar value. Counter-ions that a name gives are not always drawn.

T2 sequence (O60674 849-1124 limits assumed): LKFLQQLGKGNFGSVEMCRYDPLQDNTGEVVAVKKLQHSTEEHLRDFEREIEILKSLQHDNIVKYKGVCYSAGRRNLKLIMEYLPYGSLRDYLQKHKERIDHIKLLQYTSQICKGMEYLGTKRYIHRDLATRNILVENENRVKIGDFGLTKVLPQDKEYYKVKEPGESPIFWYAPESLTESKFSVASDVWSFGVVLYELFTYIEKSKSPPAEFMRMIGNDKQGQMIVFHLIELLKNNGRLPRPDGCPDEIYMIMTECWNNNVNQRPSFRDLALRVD
T1 sequence (P23458 875-1153 limits assumed): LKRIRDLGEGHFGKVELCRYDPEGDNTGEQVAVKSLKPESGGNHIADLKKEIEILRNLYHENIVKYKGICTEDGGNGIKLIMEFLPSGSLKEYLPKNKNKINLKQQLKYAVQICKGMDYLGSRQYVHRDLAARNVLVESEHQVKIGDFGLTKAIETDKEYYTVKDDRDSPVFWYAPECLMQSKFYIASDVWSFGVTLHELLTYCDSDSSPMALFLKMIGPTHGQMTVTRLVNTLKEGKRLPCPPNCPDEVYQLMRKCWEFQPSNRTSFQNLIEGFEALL

Turning to `Cn1cc(Nc2nc3c(N4CCC(c5ccc(Cl)cc5)(C(O)CN5CCOCC5)CC4)cccn3n2)cn1` (racemic) [B, 1-[4-(4-chlorophenyl)-1-[2-[(1-methylpyrazol-4-yl)amino]-[1,2,4]triazolo[1,5-a]pyridin-8-yl]-4-piperidyl]-2-morpholino-ethanol], the pKi is 9.01 in experiment [1] and 9.24 in experiment [2].

As for `CN(C)CC(O)C1(c2ccc(Cl)cc2)CCN(c2cccn3nc(Nc4cnn(C)c4)nc23)CC1` (racemic) [C, 1-[4-(4-chlorophenyl)-1-[2-[(1-methylpyrazol-4-yl)amino]-[1,2,4]triazolo[1,5-a]pyridin-8-yl]-4-piperidyl]-2-(dimethylamino)ethanol], the pKi in experiment [1] was 8.74; in experiment [2] it was 8.54.

As for `Cn1cc(Nc2nc3c(N4CCC(CO)(c5ccc(Cl)cc5)CC4)cccn3n2)cn1` [A, [4-(4-chlorophenyl)-1-[2-[(1-methylpyrazol-4-yl)amino]-[1,2,4]triazolo[1,5-a]pyridin-8-yl]-4-piperidyl]methanol], the pKi in experiment [1] was 9.74; in experiment [2] it was 9.89.

Consider `OCC1(c2ccc(Cl)cc2)CCN(c2cccn3nc(Nc4cnn(CC5CCNCC5)c4)nc23)CC1` [Compound 1-1, [4-(4-chloropenyl)-1-[2-[[1-(4-piperidylmethyl)pyrazol-4-yl]amino]-[1,2,4]triazolo[1,5-a]pyridin-8-yl]-4-piperidyl]methanol; hydrochloride], for which the pKi in experiment [1] was 9.68; in experiment [2], 10.35.

With `OCC1(c2ccc(Cl)cc2)CCN(c2cccn3nc(Nc4cnn(CCN5CCOCC5)c4)nc23)CC1` [Compound 1-2, [4-(4-chlorophenyl)-1-[2-[[1-(2-morpholinoethyl)pyrazol-4-yl]amino]-[1,2,4]triazolo[1,5-a]pyridin-8-yl]-4-piperidyl]methanol; formic acid], the negative-log Ki (pKi) in experiment [1] is 9.28; in experiment [2], 9.80.

For `OCC1(c2ccc(Cl)cc2)CCN(c2cccn3nc(Nc4cnn(C5CCN(Cc6ccccc6)CC5)c4)nc23)CC1` [Compound 1-3, [1-[2-[[1-(1-benzyl-4-piperidyl)pyrazol-4-yl]amino]-[1,2,4]triazolo[1,5-a]pyridin-8-yl]-4-(4-chlorophenyl)-4-piperidyl]methanol; formic acid], the negative-log Ki (pKi) was 9.20 in experiment [1] and 9.42 in experiment [2].

`N#CCCN1CCC(n2cc(Nc3nc4c(N5CCC(CO)(c6ccc(Cl)cc6)CC5)cccn4n3)cn2)CC1` [Compound 1-4, 3-[4-[4-[[8-[4-(4-chlorophenyl)-4-(hydroxymethyl)-1-piperidyl]-[1,2,4]triazolo[1,5-a]pyridin-2-yl]amino]pyrazol-1-yl]-1-piperidyl]propanenitrile]: the values for the pKi in experiment [1] and in experiment [2] were 9.57 and 9.96, respectively.

Turning to `OCC1(c2ccc(Cl)cc2)CCN(c2cccn3nc(Nc4cnn(C5CCNCC5)c4)nc23)CC1` [Compound 1-5, [4-(4-chlorophenyl)-1-[2-[[1-(4-piperidyl)pyrazol-4-yl]amino]-[1,2,4]triazolo[1,5-a]pyridin-8-yl]-4-piperidyl]methanol; formic acid], the pKi in experiment [1] is 9.64; in experiment [2], 9.92.

On to `OCC1(c2ccc(Cl)cc2)CCN(c2cccn3nc(Nc4cnn(Cc5ccncc5)c4)nc23)CC1` [Compound 1-6, [4-(4-chlorophenyl)-1-[2-[[1-(4-pyridylmethyl)pyrazol-4-yl]amino]-[1,2,4]triazolo[1,5-a]pyridin-8-yl]-4-piperidyl]methanol; formic acid], for which the figures for the negative-log Ki (pKi) in experiment [1] and in experiment [2] were 9.35 and 9.92, respectively.

In the case of `OCCCn1cc(Nc2nc3c(N4CCC(CO)(c5ccc(Cl)cc5)CC4)cccn3n2)cn1` [Compound 1-7, 3-[4-[[8-[4-(4-chlorophenyl)-4-(hydroxymethyl)-1-piperidyl]-[1,2,4]triazolo[1,5-a]pyridin-2-yl]amino]pyrazol-1-yl]propan-1-ol], the values for the pKi in experiment [1] and in experiment [2] were 9.74 and 9.96, respectively.

What is called pKi is the negative decadic logarithm of the Ki, by convention in mol/L.

The values above are taken from US20180327402A1, “TRIAZOLOPYRIDINE COMPOUNDS AND METHODS OF USE THEREOF” (Genentech, Inc., priority 2015, published 2018).
